Assay results reported in patent publication US20260109732A1, “LIPID AMINES” (ModernaTX, Inc., priority 2021, published 2026).
Structures can show the parent of a compound that is named as a salt.

Columns and labels:
HeLa cells [1] = assay: Luciferase Protein Expression Assay in HeLa Cells; format: cell-based, Human; conditions: LNPs encapsulating Luciferase mRNA, 25 ng per well, N=4 wells; 5 h serum-free then 24 h; ONE-Glo
Outline: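 Luminescence output, average RLU across N=4 wells, was measured with ONE-Glo after cell lysis. Before that, HeLa cells were exposed to 25 ng/well luciferase-mRNA nanoparticles (PBS control) for 5 h serum-free, then cultured overnight (24 h) in complete MEM.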

[2] = Encapsulation of mRNA nanoparticles with lipid amines using Ribogreen assay; format: physicochemical
Outline: (§1)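 DLS gave size and PDI, and Ribogreen gave encapsulation, for luciferase- or CFTR-mRNA nanoparticles (N:P 4.93). Particles came from IL1/DSPC/cholesterol/PEG-DMG-2K mixed at pH 4, mRNA-loaded, neutralized with TRIS pH 8.12, and then treated with lipid amine SA50 in pH 7.5 buffer.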

[3] = Diameter and PDI from DLS measurements of mRNA nanoparticles with lipid amines; format: physicochemical
Outline: as §1

HeLa cells [4] = assay: CFTR Protein Expression Assay in HeLa Cells; format: cell-based, Human; conditions: LNPs encapsulating CFTR mRNA, N=4 wells; 5 h serum-free then 24 h; immunofluorescence vs PBS control
Outline: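 Readout is fold-change in per-cell CFTR immunofluorescence intensity (488 nm, confocal imaging) relative to PBS-treated cells, from 4 replicate wells. LNPs encapsulating CFTR mRNA were applied serum-free for 5 h, followed by 24 h in complete medium before PFA fixation.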

[5] = CFTR mRNA nanoparticle with lipid amine
[6] = Luciferase mRNA nanoparticle modified with lipid amine

| Structure (SMILES) | Average Relative Light Units ± Standard Deviation (HeLa cells [1]) [Relative Light Units] | % Encapsulation (Ribogreen) [2, 5] [%] | % Encapsulation (Ribogreen) [2, 6] [%] | Diameter (nm) [3, 5] [nm] | PDI [3, 5] | Diameter (nm) [3, 6] [nm] | PDI [3, 6] | Average fold-change in CFTR signal intensity per cell compared to buffer control ± standard deviation (HeLa cells [4]) [fold-change] |
| --- | --- | --- | --- | --- | --- | --- | --- | --- |
| CC(C)CCC[C@@H](C)[C@H]1CC[C@H]2[C@@H]3CC=C4C[C@@H](OC(=O)CCCC(=O)N(CCCCCCCC(C)(C)N)CCC(C)(C)N)CC[C@]4(C)[C@H]3CC[C@]12C.Cl.Cl [SA141, (3S,8S,9S,10R,13R,14S,17R)-10,13-dimethyl-17-((R)-6-methylheptan-2-yl)-2,3,4,7,8,9,10,11,12,13,14,15,16,17-tetradecahydro-1H-cyclopenta[a]phenanthren-3-yl 5-((3-amino-3-methylbutyl)(8-amino-8-methylnonyl)amino)-5-oxopentanoate dihydrochloride] | 35801.9 ± 8884.3 | 98.9 | 98.9 | 70.8 | 0.12 | 73 | 0.15 | 14.9 ± 0.6 |
| CC(C)CCC[C@@H](C)[C@H]1CC[C@H]2[C@@H]3CC=C4C[C@@H](OC(=O)CCCC(=O)N(CCCCCCCC(C)N)CCC(C)N)CC[C@]4(C)[C@H]3CC[C@]12C (stereo partly drawn) [SA142, (3S,8S,9S,10R,13R,14S,17R)-10,13-dimethyl-17-((R)-6-methylheptan-2-yl)-2,3,4,7,8,9,10,11,12,13,14,15,16,17-tetradecahydro-1H-cyclopenta[a]phenanthren-3-yl 5-((3-aminobutyl)(8-aminononyl)amino)-5-oxopentanoate dihydrochloride] | 44925.4 ± 6006.5 | 99.0 | 99.5 | 69.5 | 0.14 | 72 | 0.19 | 20.0 ± 1.0 |
| CC[C@H](CC[C@@H](C)[C@H]1CC[C@H]2[C@@H]3CC=C4C[C@@H](OC(=O)N(CCCCCCCC(C)N)CCC(C)N)CC[C@]4(C)[C@H]3CC[C@]12C)C(C)C (stereo partly drawn) [SA144, (3S,8S,9S,10R,13R,14S,17R)-17-((2R,5R)-5-ethyl-6-methylheptan-2-yl)-10,13-dimethyl-2,3,4,7,8,9,10,11,12,13,14,15,16,17-tetradecahydro-1H-cyclopenta[a]phenanthren-3-yl (3-aminobutyl)(8-aminononyl)carbamate dihydrochloride] | 33357.5 ± 5288.8 | 98.8 | 99.2 | 69.3 | 0.12 | 71 | 0.15 | 17.9 ± 2.1 |
| CC(C)CCC[C@@H](C)[C@H]1CC[C@H]2[C@@H]3CC=C4C[C@@H](SSCCC(=O)N(CCCC(C)(C)N)CCC(C)(C)N)CC[C@]4(C)[C@H]3CC[C@]12C [SA145, N-(3-amino-3-methylbutyl)-N-(4-amino-4-methylpentyl)-3-(((3S,8S,9S,10R,13R,14S,17R)-10,13-dimethyl-17-((R)-6-methylheptan-2-yl)-2,3,4,7,8,9,10,11,12,13,14,15,16,17-tetradecahydro-1H-cyclopenta[a]phenanthren-3-yl)disulfaneyl)propanamide dihydrochloride] | 36033.7 ± 4254.5 | 99.8 | 99.7 | 71.8 | 0.14 | 77 | 0.17 | 14.4 ± 0.6 |
| CC[C@H](CC[C@@H](C)[C@H]1CC[C@H]2[C@@H]3CC=C4C[C@@H](OC(=O)N(CCCC(C)(C)N)CCC(C)(C)N)CC[C@]4(C)[C@H]3CC[C@]12C)C(C)C [SA149, (3S,8S,9S,10R,13R,14S,17R)-17-((2R,5R)-5-ethyl-6-methylheptan-2-yl)-10,13-dimethyl-2,3,4,7,8,9,10,11,12,13,14,15,16,17-tetradecahydro-1H-cyclopenta[a]phenanthren-3-yl (3-amino-3-methylbutyl)(4-amino-4-methylpentyl)carbamate dihydrochloride] | 31035.2 ± 6333.7 | 99.9 | 99.5 | 72.3 | 0.14 | 75 | 0.15 | 15.8 ± 1.4 |
| CC(C)CCC[C@@H](C)[C@H]1CC[C@H]2[C@@H]3CC=C4C[C@@H](OC(=O)N(CCCCCCCC(C)N)CCC(C)N)CC[C@]4(C)[C@H]3CC[C@]12C (stereo partly drawn) [SA151, (3S,8S,9S,10R,13R,14S,17R)-10,13-dimethyl-17-((R)-6-methylheptan-2-yl)-2,3,4,7,8,9,10,11,12,13,14,15,16,17-tetradecahydro-1H-cyclopenta[a]phenanthren-3-yl (3-aminobutyl)(8-aminononyl)carbamate dihydrochloride] | 36345.5 ± 6730.7 | 98.2 | 95.8 | 72.0 | 0.14 | 72 | 0.12 | 20.2 ± 1.3 |
| CC(C)CCC[C@@H](C)[C@H]1CC[C@H]2[C@@H]3CC=C4C[C@@H](OC(=O)N(CCCCCCCC(C)(C)N)CCC(C)(C)N)CC[C@]4(C)[C@H]3CC[C@]12C [SA152, (3S,8S,9S,10R,13R,14S,17R)-10,13-dimethyl-17-((R)-6-methylheptan-2-yl)-2,3,4,7,8,9,10,11,12,13,14,15,16,17-tetradecahydro-1H-cyclopenta[a]phenanthren-3-yl (3-amino-3-methylbutyl)(8-amino-8-methylnonyl)carbamate dihydrochloride] | 41692.8 ± 9336.8 | 98.4 | 98.2 | 71.6 | 0.14 | 78 | 0.15 | 20.6 ± 1.6 |
| CC[C@H](CC[C@@H](C)[C@H]1CC[C@H]2[C@@H]3CC=C4C[C@@H](OC(=O)N(CCCCCCCC(C)(C)N)CCC(C)(C)N)CC[C@]4(C)[C@H]3CC[C@]12C)C(C)C [SA153, (3S,8S,9S,10R,13R,14S,17R)-17-((2R,5R)-5-ethyl-6-methylheptan-2-yl)-10,13-dimethyl-2,3,4,7,8,9,10,11,12,13,14,15,16,17-tetradecahydro-1H-cyclopenta[a]phenanthren-3-yl (3-amino-3-methylbutyl)(8-amino-8-methylnonyl)carbamate dihydrochloride] | 35859.3 ± 5894.9 | 98.5 | 95.8 | 69.3 | 0.12 | 72 | 0.15 | 17.5 ± 1.4 |
| CC[C@H](CC[C@@H](C)[C@H]1CC[C@H]2[C@@H]3CC=C4C[C@@H](OC(=O)CCCC(=O)N(CCCCCCCC(C)N)CCC(C)N)CC[C@]4(C)[C@H]3CC[C@]12C)C(C)C (stereo partly drawn) [SA154, (3S,8S,9S,10R,13R,14S,17R)-17-((2R,5R)-5-ethyl-6-methylheptan-2-yl)-10,13-dimethyl-2,3,4,7,8,9,10,11,12,13,14,15,16,17-tetradecahydro-1H-cyclopenta[a]phenanthren-3-yl 5-((3-aminobutyl)(8-aminononyl)amino)-5-oxopentanoate dihydrochloride] | 28128.6 ± 4655.3 | 99.1 | 99.6 | 72.8 | 0.13 | 73 | 0.18 | 16.7 ± 0.8 |
| CC[C@H](CC[C@@H](C)[C@H]1CC[C@H]2[C@@H]3CC=C4C[C@@H](OC(=O)CCCC(=O)N(CCCCCCCC(C)(C)N)CCC(C)(C)N)CC[C@]4(C)[C@H]3CC[C@]12C)C(C)C [SA155, (3S,8S,9S,10R,13R,14S,17R)-17-((2R,5R)-5-ethyl-6-methylheptan-2-yl)-10,13-dimethyl-2,3,4,7,8,9,10,11,12,13,14,15,16,17-tetradecahydro-1H-cyclopenta[a]phenanthren-3-yl 5-((3-amino-3-methylbutyl)(8-amino-8-methylnonyl)amino)-5-oxopentanoate dihydrochloride] | 31922.9 ± 8053.8 | 99.4 | 98.9 | 71.1 | 0.13 | 73 | 0.11 | 12.2 ± 1.0 |
